Results reported in patent publication EP4796536A1, “CRYSTAL FORMS OF COMPOUND HAVING FUSED FIVE- AND SIX-MEMBERED RINGS, PREPARATION METHOD THEREFOR, AND USE THEREOF” (Hangzhou Polymed Biopharmaceuticals, Inc., priority 2023, dated 2025).

Assays:
IRAK4 kinase = molecular target: T1, IRAK4 kinase (Homo sapiens, UniProt Q9NWZ3); assay: Inhibition of IRAK4 kinase activity, fluorescence microfluidic mobility assay; assay type: biochemical; details: IRAK4 6 nM, ATP 10 µM, substrate peptide FAM-P8 3 µM
T1 construct: purchased Carna 09-145
T1 sequence (Q9NWZ3 1-460): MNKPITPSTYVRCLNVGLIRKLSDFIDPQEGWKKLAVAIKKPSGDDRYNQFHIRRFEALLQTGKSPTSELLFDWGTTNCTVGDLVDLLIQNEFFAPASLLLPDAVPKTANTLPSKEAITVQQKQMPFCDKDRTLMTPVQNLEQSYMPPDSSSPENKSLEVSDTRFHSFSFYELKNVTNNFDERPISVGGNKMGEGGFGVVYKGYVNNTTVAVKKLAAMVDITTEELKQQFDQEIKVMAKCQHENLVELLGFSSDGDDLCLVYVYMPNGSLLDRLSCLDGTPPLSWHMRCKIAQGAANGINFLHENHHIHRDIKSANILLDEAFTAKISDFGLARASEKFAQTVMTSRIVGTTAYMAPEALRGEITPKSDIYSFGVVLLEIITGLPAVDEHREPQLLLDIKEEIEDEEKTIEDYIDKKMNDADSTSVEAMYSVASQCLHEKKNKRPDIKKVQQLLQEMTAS
Procedure: Based on the experimental method of fluorescence microfluidic mobility assay, the IC50 value of competitive binding of IRAK4 kinase to ATP by the compound was determined. The initial detection concentration of the compound was 10 µM, which was 4-fold serially diluted to […] and assayed in duplicate. In this case, commercially available staurosporine was the standard control for the assay.
• 1) IRAK4 kinase was dissolved in kinase buffer (50 mM HEPES pH 7.5, 10 mM MgCl2, 2 mM DTT, and 0.01% Brij-35) at a final concentration of 6 nM. • 2) The substrate peptide FAM-P8 and ATP were dissolved in the above kinase buffer, and the final concentrations of the substrate peptide FAM-P8 and ATP for IRAK4 were 3 µM and 10 µM, respectively. • 3) Dilution of compound: the compound was first diluted to 50 µM, and then 4-fold serially diluted with DMSO. […] After incubation at 28°C for 1 hour, 25 µL of stop solution (100 mM HEPES pH 7.5, 50 mM EDTA, 0.2% Coating Reagent #3, and 0.015% Brij-35) was added to each well to terminate the reaction. • 5) Data reading: CaliperEZ Reader II instrument was used to read the conversion rate data. […]

[1] = molecular target: T2, IRAK4 protein in THP-1 cells (Homo sapiens, UniProt Q9NWZ3); assay: IRAK4 protein degradation in THP-1 cells by Western Blot; assay type: cell-based; details: 24 hours after administration
T2 construct: endogenous in cells; host or cells: THP-1
T2 sequence (Q9NWZ3 1-460): T1 sequence (Q9NWZ3 1-460)
Procedure: 2.2.2.1 Based on the experimental method of immunoblot, i.e., Western Blot, THP-1 cell samples processed by gel electrophoresis were stained with specific antibodies, and the degrading activity of the compound on the IRAK4 protein in THP-1 cells was determined by analyzing the position and depth of staining. The detection concentrations of the compound were 0 µM, 0.3 µM, 1 µM, and 3 µM, and the compound was used to treat the cells for 8 hours, 16 hours, 24 hours, and 48 hours. In this case, glyceraldehyde-3-phosphate dehydrogenase (GAPDH) was the internal reference protein for the assay.
• Running buffer: 50 mL of MOPS SDS Running Buffer (20X) and 50 mL of 20× TBS Tween-20 buffer were diluted to 1L with deionized water as running buffer; • 5% skim milk (w/v): 5% skim milk was prepared by diluting 2.5 g of skim milk with 50 mL of 1× TBS Tween-20 buffer; • 5% BSA (w/v): 5% BSA was prepared by diluting 2.5 g of BSA with 50 mL of 1× TBS Tween-20 buffer; • Anti-IRAK4 antibody was diluted at 1:1000 with 5% BSA into a primary antibody working solution; • Goat Anti-Rabbit IgG H&L (HRP) was diluted at 1:2000 with 5% BSA into a secondary antibody working solution; • Goat Anti-Mouse IgG H&L (HRP) was diluted at 1:2000 with 5% BSA into a secondary antibody working solution. […]

## COc1cc2nn(C3CC4(CCN(C(=O)C5CCN(c6ccc7c(c6)C(=O)N(C6CCC(=O)NC6=O)C7=O)CC5)CC4)C3)cc2cc1NC(=O)c1cccc(C(F)(F)F)n1 (centres unmarked) [X]
IRAK4 kinase
  IC50: 26 nM
[1]
  DC50: 4.02 nM
